Measurements taken from patent US12129237B2, “Substituted diaminocarboxamide and diaminocarbonitrile pyrimidines, compositions thereof, and methods of treatment therewith” (SIGNAL PHARMACEUTICALS, LLC, priority 2011, dated 2024).

The compounds below were run against T1, JNK1 (Homo sapiens, UniProt P45983) (assay: JNK1 biochemical assays (one or more of: time resolved fluorescence, Z'-LYTE Cascade, radioactive)). Conditions: Table 2; JNK1 IC50 activity level; read-out: Act. Level.
T1 construct: purchased Carna Biosciences
T1 sequence (P45983 whole entry): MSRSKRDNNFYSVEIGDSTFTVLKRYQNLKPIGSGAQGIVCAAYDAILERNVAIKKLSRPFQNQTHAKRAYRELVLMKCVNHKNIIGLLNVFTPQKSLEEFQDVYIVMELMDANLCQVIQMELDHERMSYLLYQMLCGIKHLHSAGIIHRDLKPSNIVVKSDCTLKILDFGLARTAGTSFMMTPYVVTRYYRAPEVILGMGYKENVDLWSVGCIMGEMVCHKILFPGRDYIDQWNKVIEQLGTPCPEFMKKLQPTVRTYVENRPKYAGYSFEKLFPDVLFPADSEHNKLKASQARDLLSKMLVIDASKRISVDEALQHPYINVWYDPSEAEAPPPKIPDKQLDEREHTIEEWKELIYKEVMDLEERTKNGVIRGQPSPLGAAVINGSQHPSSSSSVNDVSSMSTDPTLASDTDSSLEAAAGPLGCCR

| IC50 [nM] | Structure (SMILES) |
| --- | --- |
| 200 to 800 | CCC(Nc1ncc(C(N)=O)c(Nc2ccccc2)n1)c1ccccc1 (centres unmarked) [Example B-56, 4-(phenylamino)-2-(1-phenylpropylamino)pyrimidine-5-carboxamide] |
| < 200 | COc1ccc(Nc2ncc(C(N)=O)c(Nc3ccccc3)n2)c(C)c1 [Example B-18, 2-(4-methoxy-2-methylphenylamino)-4-(phenylamino)pyrimidine-5-carboxamide] |
| 200 to 800 | CC(CNc1ncc(C(N)=O)c(Nc2ccccc2)n1)c1ccccc1 (centres unmarked) [Example B-72, 4-(phenylamino)-2-(2-phenylpropylamino)pyrimidine-5-carboxamide] |
| 200 to 800 | NC(=O)c1cnc(NC2CCc3ccccc32)nc1Nc1ccccc1 (centres unmarked) [Example B-31, 2-(2,3-dihydro-1H-inden-1-ylamino)-4-(phenylamino)pyrimidine-5-carboxamide] |
| < 200 | CC(C)Nc1nc(N[C@@H]2CCc3cnccc3C2)ncc1C(N)=O [Example B-92, (R)-4-(isopropylamino)-2-(5,6,7,8-tetrahydroisoquinolin-6-ylamino)pyrimidine-5-carboxamide] |

Same assay, conditions: Table 3; JNK1 IC50 activity level; read-out: Act. Level

| IC50 [nM] | Structure (SMILES) |
| --- | --- |
| < 200 | C[C@@H]1CC[C@@H](Nc2nc(N[C@H]3CC[C@H](O)CC3)ncc2C#N)C[C@H]1O [Example C-48, 4-((1R,3R,4R)-3-hydroxy-4-methylcyclohexylamino)-2-((1r,4R)-4-hydroxycyclohexylamino) pyrimidine-5-carbonitrile] |
| 200 to 800 | CO[C@H]1CC[C@H](Nc2ncc(C#N)c(N[C@@H]3CCCC[C@](C)(O)C3)n2)CC1 [Example C-50, 4-((1R,3S)-3-hydroxy-3-methylcycloheptylamino)-2-((1r,4R)-4-methoxycyclohexylamino) pyrimidine-5-carbonitrile] |
| < 200 | CO[C@H]1CC[C@H](Nc2ncc(C#N)c(N[C@@H]3CCC[C@H]3O)n2)CC1 [Example C-18, 4-((1R,2R)-2-hydroxycyclopentylamino)-2-((1r,4R)-4-methoxycyclohexylamino) pyrimidine-5-carbonitrile] |
| < 200 | CO[C@H]1CC[C@H](Nc2ncc(C#N)c(N[C@@H]3CCCC[C@H](O)C3)n2)CC1 [Example C-27, 4-((1R,3S)-3-hydroxycycloheptylamino)-2-((1r,4R)-4-methoxycyclohexylamino) pyrimidine-5-carbonitrile] |
| < 200 | CC(=O)N[C@H]1CC[C@H](Nc2ncc(C#N)c(N[C@@H]3CCC[C@H](O)C3)n2)CC1 [Example C-13, N-((1R,4r)-4-(5-cyano-4-((1R,3S)-3-hydroxycyclohexylamino)pyrimidin-2-ylamino)cyclohexyl)acetamide] |
| 200 to 800 | CCO[C@H]1CC[C@H](Nc2ncc(C#N)c(N[C@H]3CCOC3)n2)CC1 [Example C-37, 2-((1r,4S)-4-ethoxycyclohexylamino)-4-((S)-tetrahydrofuran-3-ylamino)pyrimidine-5-carbonitrile] |

Same assay, conditions: one or more of the JNK1 biochemical assays; read-out: Act. Level (JNK1 IC50 activity level)

| IC50 [nM] | Structure (SMILES) |
| --- | --- |
| < 200 | CCC(C)(C)Nc1ncc(C(N)=O)c(N[C@@H]2CC[C@@H](C)[C@H](O)C2)n1 [Example 286, 4-((1R,3R,4R)-3-hydroxy-4-methylcyclohexylamino)-2-(tert-pentylamino)pyrimidine-5-carboxamide] |
| < 200 | CN(C)C(=O)[C@H]1CC[C@H](Nc2ncc(C(N)=O)c(NC(C)(C)C3CC3)n2)CC1 [Example 480, 4-(2-cyclopropylpropan-2-ylamino)-2-((1r,4r)-4-(dimethylcarbamoyl)cyclohexylamino)pyrimidine-5-carboxamide] |
| < 200 | CCNc1nc(N[C@H]2CC[C@H](O)CC2)ncc1C(N)=O [Example 269, 4-(ethylamino)-2-((1r,4r)-4-hydroxycyclohexylamino)pyrimidine-5-carboxamide] |
| < 200 | CC(C)(Nc1nc(N[C@H]2CCC[C@@H](O)C2)ncc1C(N)=O)C1CC1 [Example 457, 4-(2-cyclopropylpropan-2-ylamino)-2-((1S,3R)-3-hydroxycyclohexylamino)pyrimidine-5-carboxamide] |
| < 200 | CCCC(C)(C)Nc1nc(N[C@H]2CC[C@H](O)CC2)ncc1C(N)=O [Example 390, 2-((1r,4r)-4-hydroxycyclohexylamino)-4-(2-methylpentan-2-ylamino)pyrimidine-5-carboxamide] |
| < 200 | CC(C)(C)Nc1nc(NC2CCOCC2)ncc1C(N)=O [Example 317, 4-(tert-butylamino)-2-(tetrahydro-2H-pyran-4-ylamino)pyrimidine-5-carboxamide] |
| < 200 | NC(=O)c1cnc(NC23CCC(O)(CC2)CC3)nc1N[C@@H]1CCC[C@H](O)C1 [Example 229, 2-(4-hydroxybicyclo[2.2.2]octan-1-ylamino)-4-((1R,3S)-3-hydroxycyclohexylamino)pyrimidine-5-carboxamide] |
| < 200 | CCO[C@H]1CC[C@H](Nc2ncc(C(N)=O)c(NC3(CC)CCC3)n2)CC1 [Example 360, 2-((1r,4r)-4-ethoxycyclohexylamino)-4-(1-ethylcyclobutylamino)pyrimidine-5-carboxamide] |
| < 200 | CC1(Nc2nc(N[C@H]3CC[C@H](OCC(F)(F)F)CC3)ncc2C(N)=O)CCC1 [Example 415, 4-(1-methylcyclobutylamino)-2-((1r,4r)-4-(2,2,2-trifluoroethoxy)cyclohexylamino)pyrimidine-5-carboxamide] |
| 1000 to 10000 | CCO[C@H]1CC[C@H](Nc2ncc(C(N)=O)c(N[C@H](C)C3CCC3)n2)CC1 [Example 294, 4-((R)-1-cyclobutylethylamino)-2-((1r,4R)-4-ethoxycyclohexylamino)pyrimidine-5-carboxamide] |
| < 200 | C[C@@H](Nc1nc(N[C@H]2CC[C@H](OC(F)F)CC2)ncc1C(N)=O)C1CC1 [Example 426, 4-((R)-1-cyclopropylethylamino)-2-((1r,4R)-4-(difluoromethoxy)cyclohexylamino)pyrimidine-5-carboxamide] |
| < 200 | COC12CCC(Nc3ncc(C(N)=O)c(NC4CCC[C@](C)(O)C4)n3)(CC1)CC2 (stereo partly drawn) [Example 370, 4-((3S)-3-hydroxy-3-methylcyclohexylamino)-2-(4-methoxybicyclo[2.2.2]octan-1-ylamino)pyrimidine-5-carboxamide] |
| < 200 | CN(C)C(=O)[C@H]1CC[C@H](Nc2ncc(C(N)=O)c(NC(C)(C)C)n2)CC1 [Example 308, 4-(tert-butylamino)-2-((1r,4r)-4-(dimethylcarbamoyl)cyclohexylamino)pyrimidine-5-carboxamide] |
| 1000 to 10000 | CO[C@H]1CC[C@H](Nc2ncc(C(N)=O)c(N[C@H](C)C3CCC3)n2)CC1 [Example 296, 4-((R)-1-cyclobutylethylamino)-2-((1r,4R)-4-methoxycyclohexylamino)pyrimidine-5-carboxamide] |
| < 200 | CC(C)(C)Nc1nc(NC2CCC(F)(F)CC2)ncc1C(N)=O [Example 318, 4-(tert-butylamino)-2-(4,4-difluorocyclohexylamino)pyrimidine-5-carboxamide] |
| < 200 | CN(C)C(=O)[C@H]1CC[C@H](Nc2ncc(C(N)=O)c(NC3CCC3)n2)CC1 [Example 437, 4-(cyclobutylamino)-2-((1r,4r)-4-(dimethylcarbamoyl)cyclohexylamino)pyrimidine-5-carboxamide] |
| < 200 | CC(C)(C)Nc1nc(NC23CCC(F)(CC2)CC3)ncc1C(N)=O [Example 289, 4-(tert-butylamino)-2-(4-fluorobicyclo[2.2.2]octan-1-ylamino)pyrimidine-5-carboxamide] |
| < 200 | NC(=O)c1cnc(N[C@H]2CC[C@H](O)CC2)nc1NCCC1CC1 [Example 218, 4-(2-cyclopropylethylamino)-2-((1r,4r)-4-hydroxycyclohexylamino)pyrimidine-5-carboxamide] |

Same assay, conditions: tested in one or more of the JNK1 biochemical assays; read-out: Act. Level (JNK1 biochemical assay IC50 activity level)

| IC50 [nM] | Structure (SMILES) |
| --- | --- |
| < 200 | CCO[C@H]1CC[C@H](Nc2ncc(C(N)=O)c(N[C@H]3CCC[C@@H]3O)n2)CC1 [Example A-117, 2-((1r,4S)-4-ethoxycyclohexylamino)-4-((1S,2S)-2-hydroxycyclopentylamino)pyrimidine-5-carboxamide] |
| < 200 | CO[C@H]1CC[C@H](Nc2ncc(C(N)=O)c(N[C@H]3CC[C@@H](O)C3)n2)CC1 [Example A-80, 4-((1S,3R)-3-hydroxycyclopentylamino)-2-((1r,4S)-4-methoxycyclohexylamino)pyrimidine-5-carboxamide] |
| < 200 | CCO[C@H]1CC[C@H](Nc2ncc(C(N)=O)c(N[C@@H]3CCC(O)C3)n2)CC1 (stereo partly drawn) [Example A-96, 2-((1r,4R)-4-ethoxycyclohexylamino)-4-((1R,3S)-3-hydroxycyclopentylamino)pyrimidine-5-carboxamide] |
| < 200 | NC(=O)c1cnc(NC2CCCCC2)nc1N[C@H]1CC[C@@H](O)CC1 [Example A-147, 2-(cyclohexylamino)-4-((1s,4s)-4-hydroxycyclohexylamino)pyrimidine-5-carboxamide] |
| 200 to 800 | NC(=O)c1cnc(NC2CC2)nc1N[C@H]1CC[C@@H](CO)CC1 [Example A-136, 2-(cyclopropylamino)-4-((1s,4s)-4-(hydroxymethyl)cyclohexylamino)pyrimidine-5-carboxamide] |
| 200 to 800 | CO[C@H]1CC[C@H](Nc2ncc(C(N)=O)c(N[C@@H]3CCNC(=O)C3)n2)CC1 [Example A-26, 2-((1r,4R)-4-methoxycyclohexylamino)-4-((R)-2-oxopiperidin-4-ylamino)pyrimidine-5-carboxamide] |
| < 200 | CC(C)(O)[C@H]1CC[C@@H](Nc2nc(NC3CCOCC3)ncc2C(N)=O)CC1 [Example A-111, 4-((1s,4s)-4-(2-hydroxypropan-2-yl)cyclohexylamino)-2-(tetrahydro-2H-pyran-4-ylamino)pyrimidine-5-carboxamide] |
| < 200 | CCC(=O)N1CCC(Nc2ncc(C(N)=O)c(N[C@H]3CC[C@@H](O)CC3)n2)CC1 [Example A-89, 4-((1s,4s)-4-hydroxycyclohexylamino)-2-(1-propionylpiperidin-4-ylamino)pyrimidine-5-carboxamide] |
| < 200 | CCC(=O)N1CCC(Nc2ncc(C(N)=O)c(NC3CCCC3)n2)CC1 [Example A-114, 4-(cyclopentylamino)-2-(1-propionylpiperidin-4-ylamino)pyrimidine-5-carboxamide] |
